Molecules are shown by their SMILES. Values joined by “and” are separate entries in the source; they are usually repeats but may differ in a detail not shown here. Equal entries are not always repeated. Toxic doses and inconclusive results are not listed. Where a SMILES comes first, the peptide text is derived from it. The star is where a group is joined. Cbz = O=C(OCc1ccccc1)*

This experiment relates to B6C3F1 mice, B16 melanoma ip, median survival T/C. Briefly: NCI In Vivo Anticancer Drug Screen. Data for tumor model B16 Melanoma (intraperitoneal) in B6C3F1 mice. As to conditions: endpoint: median survival time, schedule: Q01DX009 (ip), higher = longer survival. As for the experimental part:
The antitumor activity of compounds was measured in mice bearing transplantable tumors. Survival or tumor size were measured and the results are expressed as the measurement made in the treated group (T) divided by the measurement made in the vehicle treated control group (C). The tumor model used in this assay is B16 Melanoma (intraperitoneal) in B6C3F1 mice

Setting [1] is: dose: 6.25 mg/kg/injection, vehicle: saline with Tween-80.
Setting [2] is: dose: 12.5 mg/kg/injection, vehicle: saline with Tween-80.
Setting [3] is: dose: 100.0 mg/kg/injection, vehicle: saline with Tween-80.
The mark [4] stands for this setting: dose: 200.0 mg/kg/injection, vehicle: saline with Tween-80.
[5] abbreviates: dose: 400.0 mg/kg/injection, vehicle: saline with Tween-80.
Setting [6] is: dose: 25.0 mg/kg/injection, vehicle: saline with Tween-80.
The mark [7] stands for this setting: dose: 50.0 mg/kg/injection, vehicle: saline with Tween-80.
[8] abbreviates: dose: 50.0 mg/kg/injection, vehicle: saline.
[9] abbreviates: dose: 100.0 mg/kg/injection, vehicle: saline.
[10] abbreviates: dose: 100.0 mg/kg/injection, vehicle: Klucel (hydroxypropylcellulose) (HPC).
Setting [11] is: dose: 200.0 mg/kg/injection, vehicle: Klucel (hydroxypropylcellulose) (HPC).
[12] abbreviates: dose: 400.0 mg/kg/injection, vehicle: Klucel (hydroxypropylcellulose) (HPC).
The mark [13] stands for this setting: dose: 200.0 mg/kg/injection, vehicle: saline.
Where [14] appears, read: dose: 12.5 mg/kg/injection, vehicle: Klucel (hydroxypropylcellulose) (HPC).
Setting [15] is: dose: 25.0 mg/kg/injection, vehicle: Klucel (hydroxypropylcellulose) (HPC).
The mark [16] stands for this setting: dose: 50.0 mg/kg/injection, vehicle: Klucel (hydroxypropylcellulose) (HPC).
Where [17] appears, read: dose: 6.25 mg/kg/injection, vehicle: Klucel (hydroxypropylcellulose) (HPC).

For `Cc1cc(N=NC(N)=S)c2ccccc2c1O`, the T/C is, setting by setting: (dose: 3.13 mg/kg/injection, vehicle: saline with Tween-80) 94 % of control; under setting [1], 86 % of control; under setting [2], 87 % of control.

In the case of `O=C(O)C(Cc1ccc(O)cc1)NS(=O)(=O)Cc1ccccc1` (centres undefined), the T/C is 106 % of control under setting [3], 101 % of control under setting [4] and 100 % of control under setting [5].

Turning to `Nc1nc2c(ncn2C2OC(CO)C(O)C2N)c(=O)[nH]1` (centres undefined), the T/C is 97 % of control (dose: 3.12 mg/kg/injection, vehicle: saline with Tween-80); 90 % of control under setting [1]; 107 % of control under setting [2]; 112 % of control under setting [6]; 97 % of control under setting [7]; 107 % of control under setting [3]. The T/C under setting [4] was 104 % of control.

For `CC(C)(C)C(=O)Oc1ccc(N=C(N)N)cc1`, the T/C runs as follows: (dose: 12.5 mg/kg/injection, vehicle: saline) 94 % of control; (dose: 25.0 mg/kg/injection, vehicle: saline) 94 % of control; under setting [8], 97 % of control; under setting [9], 92 % of control.

With `Ic1ccc2c(c1)N(c1ccccc1)c1cc(N=c3ccc4nc5ccc(I)cc5n(-c5ccccc5)c-4c3)ccc1N2`, the T/C by setting is: under setting [10], 91 % of control; under setting [11], 94 % of control; under setting [12], 91 % of control.

For `OC1OC2COC(c3ccccc3)OC2C(O)C1O` (centres undefined), the T/C (dose: 25.0 mg/kg/injection, vehicle: water) was 103 % of control; the T/C (dose: 50.0 mg/kg/injection, vehicle: water) is 96 % of control; the T/C (dose: 100.0 mg/kg/injection, vehicle: water) was 110 % of control; the T/C (dose: 200.0 mg/kg/injection, vehicle: water) is 98 % of control; the T/C (dose: 400.0 mg/kg/injection, vehicle: water) is 94 % of control; the T/C (dose: 800.0 mg/kg/injection, vehicle: water) was 93 % of control.

As to `S=C(S)NN1CCOCC1`, the T/C by setting is: under setting [9], 98 % of control; under setting [13], 99 % of control; (dose: 400.0 mg/kg/injection, vehicle: saline) 96 % of control.

With `Cc1[nH]ccc(=O)c1O`, the T/C runs as follows: (dose: 16.0 mg/kg/injection, vehicle: saline with Tween-80) 103 % of control; (dose: 32.0 mg/kg/injection, vehicle: saline with Tween-80) 103 % of control; (dose: 64.0 mg/kg/injection, vehicle: saline with Tween-80) 109 % of control; (dose: 128.0 mg/kg/injection, vehicle: saline with Tween-80) 111 % of control; (dose: 256.0 mg/kg/injection, vehicle: saline with Tween-80) 118 % of control.

`CCOC(=O)c1ccc(NN=NCCF)cc1`: the T/C was 123 % of control and 102 % of control (dose: 3.0 mg/kg/injection, vehicle: distilled water + Tween-80); 123 % of control (dose: 3.12 mg/kg/injection, vehicle: distilled water + Tween-80); 112 % of control and 98 % of control (dose: 6.0 mg/kg/injection, vehicle: distilled water + Tween-80); 87 % of control and 103 % of control (dose: 12.0 mg/kg/injection, vehicle: distilled water + Tween-80); 155 % of control (dose: 12.5 mg/kg/injection, vehicle: distilled water + Tween-80); 108 % of control and 101 % of control (dose: 24.0 mg/kg/injection, vehicle: distilled water + Tween-80). Moreover, the T/C runs as follows: (dose: 25.0 mg/kg/injection, vehicle: distilled water + Tween-80) 198 % of control; (dose: 48.0 mg/kg/injection, vehicle: distilled water + Tween-80) 96 % of control and 102 % of control.

On to `C[C@]12CC[C@@H]3c4ccc(OC(=O)Cc5ccc(N(CCCl)CCCl)cc5)cc4CC[C@H]3[C@@H]1CC[C@@H]2OC(=O)Cc1ccc(N(CCCl)CCCl)cc1`, for which the T/C runs as follows: under setting [14], 104 % of control; under setting [15], 92 % of control and 103 % of control; under setting [16], 121 % of control and 103 % of control; under setting [10], 90 % of control and 93 % of control; under setting [11], 104 % of control; under setting [12], 92 % of control and 103 % of control.

With `N/C(=N\OC(=O)Nc1ccc(CSc2ccc(Cl)cc2)o1)c1ccccn1`, the T/C is 97 % of control under setting [14]; 95 % of control under setting [15]; 91 % of control under setting [16]; 91 % of control under setting [10]; 86 % of control under setting [11].

As for `CCOC(=O)C(Cc1c[nH]c2ccccc12)NC(=O)C(Cc1ccccc1)NC(=O)C(Cc1cnc[nH]1)NC(=O)OCc1ccccc1` (stereo not drawn) (Cbz-His-Phe-Trp-OEt; configuration not given here), the T/C under setting [11] is 90 % of control.

As for `C=CCSc1ncnc2c1ncn2C1OC(CO)C(O)C1O` (centres undefined), the T/C was 102 % of control (dose: 37.5 mg/kg/injection, vehicle: saline with Tween-80); 90 % of control (dose: 75.0 mg/kg/injection, vehicle: saline with Tween-80); 97 % of control (dose: 150.0 mg/kg/injection, vehicle: saline with Tween-80).

For the compound `CCCCCCCCCCCCCCCCCC1=NC(C)CC(C)(C)O1` (centres undefined), the T/C by setting is: under setting [8], 96 % of control; under setting [9], 94 % of control; under setting [13], 94 % of control.

For `COc1cc2cc(c1Cl)N1CCC(C)(O)C(=O)NC(C)C(=O)OC(CC1=O)C1(C)OC1C(C)C1CC(O)(NC(=O)O1)C(OC)/C=C\C=C(\C)C2OC` (centres undefined), the T/C is 160 % of control (dose: 8.0 micrograms/kg/injection, vehicle: distilled water + alcohol); 162 % of control (dose: 16.0 micrograms/kg/injection, vehicle: distilled water + alcohol); 178 % of control (dose: 32.0 micrograms/kg/injection, vehicle: distilled water + alcohol).

As to `CC1OC2CC(=O)OC2C2=C1C(=O)c1cc(-c3cc(O)c4c(c3)C(=O)C3=C(C4=O)C4OC(=O)CC4OC3C)cc(O)c1C2=O` (centres undefined), the T/C (dose: 0.5 mg/kg/injection, vehicle: other) was 90 % of control.

Consider `C[C@]12CC[C@@H]3c4ccc(O)cc4CC[C@H]3[C@@H]1CC[C@@H]2O`, for which the T/C by setting is: under setting [17], 89 % of control; under setting [14], 98 % of control; under setting [15], 90 % of control; under setting [16], 94 % of control; under setting [10], 90 % of control; under setting [11], 89 % of control.

For the compound `Oc1c(Cl)cc(Cl)cc1C=NCCSc1ccc(Cl)cc1`, the T/C runs as follows: under setting [15], 98 % of control and 102 % of control; under setting [16], 92 % of control and 102 % of control; under setting [10], 113 % of control and 93 % of control; under setting [11], 92 % of control and 103 % of control.

In the case of `C=C1CCC2C(c3c(C)c(O)c4c(c31)C(=O)C(C)C4)C2(C)C` (centres undefined), the T/C was 102 % of control (dose: 3.13 mg/kg/injection, vehicle: Klucel (hydroxypropylcellulose) (HPC)); 89 % of control under setting [17]; 95 % of control under setting [14]; 89 % of control under setting [15].

For the compound `CSCCC(NC(=O)CNC(=O)CNC(=O)OCc1ccccc1)C(=O)O` (centres undefined) (HELM PEPTIDE1{[O=C(OCc1ccccc1)[*:2]].G.G.[CSCCC(N[*:1])C(=O)O]}$$$$V2.0), the T/C is, setting by setting: under setting [10], 100 % of control; under setting [11], 103 % of control; under setting [12], 108 % of control.

Consider `C=COC(=O)N(C)C`, for which the T/C reads like this: under setting [3], 99 % of control; under setting [4], 97 % of control.

As to `CCCCCCC(=O)CC(SCC)c1ccccc1Cl` (centres undefined), the T/C is 86 % of control under setting [6], 93 % of control under setting [3] and 96 % of control under setting [5].

On to `Cn1nnc2c1C(=O)c1ccccc1C2=O`, for which the T/C by setting is: under setting [7], 88 % of control; under setting [3], 90 % of control; under setting [4], 89 % of control.

The record behind these values is PubChem BioAssay AID200 (DTP/NCI, 2004).
